What was measured:
Format in all cases: in vivo
[1] = test system: Rhipicephalus microplus larvae (strain Parkhurst, resistant against synthetic pyrethroids); assay: Rhipicephalus (Boophilus) microplus in-vitro contact test, larval cattle tick; conditions: after 48 hours, read-out: activity (efficacy: larvae dead or moribund); for pest or weed control at 100 g/ha: application rate 1 pg/cm^2 (=100 g/ha); for pest or weed control at 500 g/ha: application rate 5 pg/cm^2 (=500 g/ha)
Method in brief: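 Acetone solutions coated onto inner walls of glass tubes by rotation (900 ppm giving 5 μg/cm^2); after evaporation, 20-50 larvae added per tube and held at 27° C., 85% relative humidity. Efficacy read after 48 h from negative geotactic behaviour; 100% = all larvae dead or moribund.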

[2] = test system: adult engorged female ticks (Rhipicephalus microplus); assay: Rhipicephalus (Boophilus) microplus injection test; conditions: 168 h, egg deposition after 7 days, read-out: activity (efficacy: infertile eggs); for pest or weed control at 0.02 mg: application rate 20 μg/animal; for pest or weed control at 4 pg: application rate 4 pg/animal
Method in brief: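 Five adult engorged female ticks injected into the abdomen with 1 μL compound solution in DMSO, then held in a climate chamber. Fertile egg deposition assessed after 7 days, unclear eggs kept until hatching (about 42 days); efficacy 100% = all eggs infertile, 0% = all fertile.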

[3] = test system: adult cat fleas (Ctenocephalides felis); assay: Ctenocephalides felis in-vitro contact test, adult cat flea; conditions: application rate 5 μg/cm^2 (=500 g/ha), after 48 hours, read-out: activity (efficacy: fleas dead or moribund)
Method in brief: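 Acetone solutions of compound coated onto inner walls of glass tubes (900 ppm giving […]); after drying, 5-10 adult Ctenocephalides felis added and held at room temperature. At 48 h, fleas placed on a 45-50° C heating plate; those unable to climb away scored dead or moribund, expressed as % efficacy.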

[4] = test system: adult unfed cat fleas (Ctenocephalides felis); assay: Ctenocephalides felis oral test; conditions: 48 h, read-out: activity (mortality)
Method in brief: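 About 20 adult unfed fleas fed through parafilm on cattle blood containing compound (DMSO stock diluted in blood), blood held at 37 °C and fleas at room temperature. Mortality (%) scored after 2 days.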

[5] = test system: larvae of the banded cucumber beetle (Diabrotica balteata); assay: Diabrotica balteata spray test; conditions: 168 h, after 7 days, read-out: activity (efficacy: seedlings grown); for pest or weed control at 500 g/ha: application rate 500 g/ha (=160 pg/well); for pest or weed control at 100 g/ha: application rate 100 g/ha (=32 pg/well)
Method in brief: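 Wheat seedlings, germinated 1 day on agar (5 seeds/well), sprayed with active compound in acetone/DMF diluted in water containing 1000 ppm emulsifier, then infested with 10-20 D. balteata larvae. Efficacy (%) scored after 7 days: 100% = seedlings grown as untreated uninfested control, 0% = no seedlings grown.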

[6] = test system: green peach aphid (Myzus persicae); assay: Myzus persicae oral test; conditions: 120 h, application rate 4 ppm, after 5 days
Method in brief: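 Oral uptake format: water-diluted acetone concentrate of compound is blended into IPL41 medium carrying 33%+15% sugar and offered under a parafilm membrane. Percentage of dead insects is recorded after 5 days.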

[7] = test system: green peach aphid (Myzus persicae); assay: Myzus persicae spray test; conditions: 120 h, after 5 days; for mortality at 100 g/ha: application rate 100 g/ha; for mortality at 500 g/ha: application rate 500 g/ha
Method in brief: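 Chinese cabbage leaf disks carrying all instars of M. persicae sprayed with compound in acetone/DMF, diluted in water with 1000 ppm alkylarylpolyglycol ether emulsifier. Percent mortality scored after 5 days (100% = all aphids killed).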

[8] = test system: larvae of the southern green stink bug (Nezara viridula); assay: Nezara viridula spray test; conditions: 96 h, after 4 days; for mortality at 500 g/ha: application rate 500 g/ha; for mortality at 100 g/ha: application rate 100 g/ha
Method in brief: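 Compound in acetone/dimethylformamide, diluted in water with 1000 ppm alkylarylpolyglycol ether emulsifier, sprayed onto barley plants carrying stink bug larvae. Mortality (%) scored after 4 days, 100% meaning all insects killed.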

[9] = test system: brown planthopper (Nilaparvata lugens); assay: Nilaparvata lugens spray test; conditions: 96 h, after 4 days; for mortality at 500 g/ha: application rate 500 g/ha; for mortality at 100 g/ha: application rate 100 g/ha
Experimental: Nilaparvata lugens—Spray Test
Solvent: 78.0 parts by weight of acetone • • 1.5 parts by weight of dimethylformamide
Emulsifier: alkylarylpolyglycol ether
To produce a suitable preparation of active compound, 1 part by weight of active compound is mixed with the stated amount of solvents and is diluted with water, containing an emulsifier concentration of 1000 ppm, to the desired concentration. Further test concentrations are prepared by dilution with emulsifier containing water.
Rice plants (Oryza sativa) are sprayed with a preparation of the active ingredient of the desired concentration and the plants are infested with the brown planthopper (Nilaparvata lugens).
After 4 days mortality in % is determined. 100% means all planthoppers have been killed and 0% means none of the planthoppers have been killed.

[10] = test system: fall armyworm larvae (Spodoptera frugiperda); assay: Spodoptera frugiperda spray test; conditions: 168 h, read-out: activity (mortality)
Method in brief: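 Compound in acetone/DMF, diluted in water with 1000 ppm alkylarylpolyglycol ether emulsifier, sprayed on maize leaf sections. Dried leaves infested with fall armyworm larvae; % mortality after 7 days (100% = all killed, 0% = none).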

[11] = test system: Aedes aegypti strain MONHEIM; assay: Aedes aegypti test (AEDSAE surface treatment & contact assay); conditions: 24 hours after contact, read-out: efficacy (mortality); for mortality at 20 mg/m2: surface concentration 20 mg/m^2, exposure 30 minutes; for mortality at 4 mg/m2: surface concentration 4 mg/m^2, exposure 30 minutes
Method in brief: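 Compound in acetone (2 mg/ml) with 2000 ppm RME pipetted onto glazed tile and dried; adult Aedes aegypti MONHEIM exposed 30 min. Percent mortality scored 24 h after contact.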

[12] = test system: southern root-knot nematode (Meloidogyne incognita); assay: Meloidogyne incognita test; conditions: 336 h, application rate 20 ppm, after 14 days, read-out: nematicidal activity (based on gall formation)
Experimental: Meloidoyne incognita—Test
Solvent: 125.0 parts by weight of acetone
To produce a suitable preparation of active compound, 1 part by weight of active compound is mixed with the stated amount of solvent, and the concentrate is diluted with water to the desired concentration.
Vessels are filled with sand, a solution of the active ingredient, a suspension containing eggs and larvae of the southern root-knot nematode (Meloidogyne incognita) and salad seeds. The salad seeds germinate and the seedlings grow. Galls develop in the roots.
After 14 days the nematicidal activity is determined based on the percentage of gall formation. 100% means no galls were found and 0% means the number of galls found on the roots of the treated plants was equal to that in untreated control plants.

[13] = test system: Musca domestica strain WHO-N; assay: Musca domestica test (MUSCDO surface treatment & contact assay); conditions: 24 hours after contact, read-out: efficacy (mortality); for mortality at 4 mg/m2: surface concentration 4 mg/m^2, exposure 30 minutes; for mortality at 20 mg/m2: surface concentration 20 mg/m^2, exposure 30 minutes
Experimental: Musca domestica Test (MUSCDO Surface Treatment & Contact Assay)
(§1) Solvent: Aceton+2000 ppm rapeseed oil methyl ester (RME)
(§2) In order to produce a sufficient, active ingredient containing solution it is necessary to solve the test compound in the solvent-mix (acetone at 2 mg/ml/RME 2000 ppm). This solution is pipetted onto a glazed tile and after evaporation of the acetone, adult flies of the species Musca domestica strain WHO—N are placed onto the dried surface. The exposure time is 30 minutes. Mortality in percent (%) is determined 24 hours after contact of the insects to the treated surface. 100% mortality means that all tested insects are dead, whereas 0% means that no insect died.

[14] = test system: adult brown dog ticks (Rhipicephalus sanguineus); assay: Rhipicephalus sanguineus in-vitro contact test, adult brown dog ticks; conditions: after 48 hours, read-out: activity (efficacy: ticks dead or moribund); for pest or weed control at 5 µg/cm2, 500 g/ha: application rate 5 μg/cm^2 (=500 g/ha)
Method in brief: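 Acetone solution rolled onto tube walls, 2 h at 30 rpm; 900 ppm → 5 μg/cm^2. Solvent evaporated, 5-10 adults/tube, perforated lid, lying, RT. 48 h: heat plate 45-50° C ≤5 min; immotile/uncoordinated = dead/moribund. 100% = all dead/moribund.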

[15] = test system: Anopheles funestus strain FUMOZ-R; assay: Anopheles funestus test (ANPHFU surface treatment & contact assay); conditions: 24 hours after contact, read-out: efficacy (mortality)
Experimental: Anopheles funestus Test (ANPHFU Surface Treatment & Contact Assay)
as §1
as §2, with “mosquitoes” for “flies”, “Anopheles funestus” for “Musca domestica”, “FUMOZ-R (Hunt et al., Med. Vet. Entomol. 2005 September; 19(3): 271-275)” for “WHO—N”

SMILES	pest or weed control at 100 g/ha [1]	pest or weed control at 500 g/ha [1]	pest or weed control at 0.02 mg [2]	pest or weed control at 5 µg/cm2 [3]	mortality at 100 ppm [4]	pest or weed control at 500 g/ha [5]	mortality at 4 ppm [6]	mortality at 100 g/ha [7]	mortality at 500 g/ha [8]	mortality at 500 g/ha [9]	mortality at 100 g/ha [10]	mortality at 20 mg/m2 [11]	pest or weed control at 4 pg [2]	pest or weed control at 100 g/ha [5]	mortality at 100 g/ha [8]	pest or weed control at 20 ppm [12]	mortality at 4 mg/m2 [13]	mortality at 20 mg/m2 [13]	other results
CCc1nc([C@H](C)NC(=O)c2cc(Cl)cc(S(C)(=O)=O)c2)n(-c2ccc(C#N)cn2)n1 [I-3]	100%	100%	100%	90%	100%	100%	100%	100%	100%	100%	100%	80 to 100%	–	–	–	–	–	–	mortality at 500 g/ha [7]: 100%; mortality at 500 g/ha [10]: 100%
COc1nc([C@H](C)NC(=O)c2cc(Cl)cc(S(C)(=O)=O)c2)n(-c2ccc(C#N)cn2)n1 [I-7]	100%	100%	100%	100%	100%	100%	100%	100%	100%	90%	100%	–	100%	100%	100%	–	–	–	mortality at 500 g/ha [7]: 90%; mortality at 500 g/ha [10]: 100%
CCS(=O)(=O)c1cc(Cl)cc(C(=O)N[C@@H](C)c2nc(C(C)C)nn2-c2ccc(C#N)cn2)c1 [I-17]	80%	80%	100%	–	90%	–	–	–	–	–	–	–	100%	–	–	90%	–	–	–
C[C@H](NC(=O)c1cc(C2CC2)cc(S(=O)(=O)C2CC2)c1)c1nc(C2CC2)nn1-c1ccc(C#N)cn1 [I-56]	100%	100%	–	–	–	–	–	–	–	–	100%	–	–	–	–	100%	–	–	–
C[C@H](NC(=O)c1cc(C(F)(F)F)cc(S(C)(=O)=O)c1)c1nc(C2CC2)nn1-c1ccc(C#N)cn1 [I-64]	–	–	–	–	–	–	100%	100%	–	–	100%	80 to 100%	–	100%	100%	–	80 to 100%	80 to 100%	mortality at 100 g/ha [9]: 100%
C[C@H](NC(=O)c1cc(OC(F)(F)F)cc(S(C)(=O)=O)c1)c1nc(C2CC2)nn1-c1ccc(C#N)cn1 [I-81]	–	–	–	–	–	–	100%	90%	100%	100%	100%	–	–	100%	100%	–	80 to 100%	80 to 100%	mortality at 4 mg/m2 [11]: 80 to 100%
C[C@H](NC(=O)c1cc(OC(F)(F)F)cc(S(C)(=O)=O)c1)c1nc(C2CC2)nn1-c1ncc(Cl)cn1 [I-82]	–	–	–	–	–	–	100%	90%	100%	90%	100%	80 to 100%	–	100%	100%	–	80 to 100%	80 to 100%	–
CC(NC(=O)c1cc(OC(F)(F)F)cc(C2CC2)c1)c1nc(I)nn1-c1ccc(C#N)cn1 (stereo not drawn) [I-83]	100%	100%	–	–	–	–	–	–	–	–	100%	–	–	100%	–	100%	–	–	pest or weed control at 5 µg/cm2, 500 g/ha [14]: 80%
CC(NC(=O)c1cc(OC(F)(F)F)cc(C2CC2)c1)c1nc(Br)nn1-c1ccc(C#N)cn1 (stereo not drawn) [I-84]	–	–	–	–	–	–	–	–	–	–	100%	–	–	100%	–	100%	–	–	–
C[C@H](NC(=O)c1cc(C#N)cc(S(C)(=O)=O)c1)c1ncnn1-c1ncccn1 [II-28]	–	–	100%	100%	–	100%	100%	–	100%	100%	–	80 to 100%	100%	–	100%	–	–	–	pest or weed control at 100 g/ha ([14]; application rate 1 pg/cm^2 (=100 g/ha)): 100%; pest or weed control at 5 µg/cm2, 500 g/ha [14]: 100%; mortality at 100 g/ha [9]: 100%; mortality at 4 mg/m2 [11]: 80 to 100%; mortality at 4 mg/m2 ([15]; surface concentration 4 mg/m^2, exposure 30 minutes): 80 to 100%; mortality at 20 mg/m2 ([15]; surface concentration 20 mg/m^2, exposure 30 minutes): 80 to 100%

Source: patent US20260206761A1, “HETEROARYL-TRIAZOLE COMPOUNDS AS PESTICIDES” (Bayer Aktiengesellschaft, priority 2019, published 2026)
